In series [1] the test system is HepG2 cells. In words: Cell cycle analysis by flow cytometry (PI), HepG2. It counts as cell-based, human. Conditions: 72 h, control 12.79 ± 0.89%. On the procedure:
The HepG2 and SMMC-7721 cells were seeded in a 6-well plate (5 × 10^5 cells/well). The cells were photographed using the inverted microscope (Eclipse Ti-S, Nikon Co., Ltd., Japan) to observe the morphological changes. The cells were collected, treated with 70% precooled ethanol (1 mL) in an ice bath, blew and mixed well, and then, fixed overnight at 4°C. The cells were stained with 25 µL PI staining solution and 10 µL RNase staining solution, according to the manufacturer's protocol, and the cell cycle was analyzed by flow cytometry (Attune NxT, Thermo Fisher Scientific Inc., USA).
(A flow cytometer gives signals particle by particle.)

The subject of series [2] is SMMC-7721 cells. The series can be described thus: Western blot of apoptosis- and autophagy-related proteins, SMMC-7721. Format: cell-based, human. The method, then:
(§1) The HepG2 and SMMC-7721 cells treated with Sa/DDP were collected and using radioimmunoprecipitation assay buffer to lyse the cells at 4°C for 30 min to extract the total protein. The protein concentration of the samples was measured using the BCA protein assay kit, after centrifugation at 12,000 g at 4°C for 5 min, and denatured by boiling at 100°C. An equal amount of protein (30 μg) was resolved using the sodium dodecyl sulfate-polyacrylamide gel (10–12%) electrophoresis for 1.5 h. The proteins were then transferred onto a membrane of nitrocellulose and blocked using 5% skimmed milk for 2 h at 20°C, followed by rinsing thrice using PBS containing 0.1% Tween 20 (PBS-T), for 5 min each. Furthermore, the […] were incubated in diluted anti-Bax, Bcl-2 PARP, c-PARP, a-caspase-3, caspase-3, p62, Beclin-1, Atg5, LC3I/II, and β-actin according to 1 : 1,000, incubated overnight at 4°C, and subsequently washed repeatedly the next day. The membranes were incubated with a secondary antibody (1 : 3000) for 1 h at ambient temperature and washed repeatedly. After washing the membrane, it was developed by the FluorChem M image acquisition system (Protein Simple Inc., USA). The quantification was performed (where appropriate) using the ImageJ software (Rawak Software Inc., Stuttgart, Germany).

Series [3] concerns HepG2 cells. In words: MTT cell viability assay, HepG2. It counts as cell-based, human. Conditions: for IC50: Homo sapiens, HepG2, Sa treatment, MTT. On the procedure:
(§2) The cells HepG2, SMMC-7721, and HL-7702 were seeded in 96-well plates containing 6,000 cells per well, supplemented with various concentrations of Sa (0–2,000 μM) and DDP (5 μM). After the cells were incubated at 37°C for 24, 48, and 72 h, they were cultured with 20 µL MTT (5 mg/mL) for 4 h. The formazan crystals were dissolved by adding 150 µL of dimethyl sulfoxide, followed by recording the absorbance at 490 nm using a microplate reader (Varioskan LUX, Thermo Fisher Scientific Inc., USA) and calculating the percentage of cell viability.
(Tetrazolium assays rely on reduction of a dye to a coloured formazan, in cell work by metabolically active cells.)

Series [4] is described as follows: MTT cell viability assay, HepG2. Format: cell-based, human. The note with it: human, HepG2 cells. The method, then: as §2
The test system of series [5] is HepG2 cells. The series can be described thus: Western blot of apoptosis- and autophagy-related proteins, HepG2. Format: cell-based, human. On the procedure:
as §1
A general note: In western blotting, separated proteins are transferred to a membrane and probed.

Series [6] has as its system SMMC-7721 cells. In words: MTT cell viability assay, SMMC-7721. It counts as cell-based. Conditions: Homo sapiens, SMMC-7721, Sa treatment. On the procedure: (§3) After the cells were incubated at 37°C for 24, 48, and 72 h, they were cultured with 20 µL MTT (5 mg/mL) for 4 h. The formazan crystals were dissolved by adding 150 µL of dimethyl sulfoxide, followed by recording the absorbance at 490 nm using a microplate reader (Varioskan LUX, Thermo Fisher Scientific Inc., USA) and calculating the percentage of cell viability.

The test system of series [7] is SMMC-7721 cells. The series can be described thus: Annexin V-FITC/PI apoptosis assay, SMMC-7721. It counts as cell-based, human. The note with it: SMMC-7721, Sa 600 μM, 72 h; control 3.67 ± 0.34%. On the procedure: (§4) The HepG2 and SMMC-7721 cells were seeded into a 6-well plate (1 × 10^5 cell/well), and after 72 h, the cells in each group were treated with trypsin and collected. The cells were rinsed twice in PBS, and a concentration of 5 × 10^5 cells/mL was treated with a binding buffer. According to the manufacturer's protocol, the cells were stained with 5 µL PI staining solution and 10 µL Annexin V-FITC staining solution with incubation for 30 min in the dark.

The test system of series [8] is HepG2 cells. In words: Annexin V-FITC/PI apoptosis assay, HepG2. Format: cell-based, human. The note with it: HepG2, Sa 600 μM, 72 h; control 13.06 ± 1.04%. The method, then:
as §4

For series [9], the system named is HepG2 cells. The series can be described thus: Colony formation assay, HepG2. Format: cell-based, human. The note with it: HepG2, Sa 600 μM, 72 h then 10 d. On the procedure:
(§5) The HepG2 and SMMC-7721 cells were seeded in a 12-well plate (200–300 cells/well). […] Then, the recovery medium was added to the complete medium (1 mL) and cultured for 10 d. Subsequently, these cells were fixed in 4% paraformaldehyde solution (1 mL) at 37°C for 2 h, stained with 0.5% crystal violet staining solution (0.5 mL) for 15 min, and photographed, and the numbers of colonies formed were tabulated. The findings were expressed as a percentage of the number of colonies in each experimental group (assuming that the control group was 100%). The ImageJ software (Rawak Software Inc., Stuttgart, Germany) was used for analyzing the data.

Another series relates to HL-7702 cells. The series can be described thus: MTT cell viability assay, normal liver HL-7702. It counts as cell-based, human. Conditions: for IC50: Homo sapiens, L02, HL-7702, Sa treatment, MTT. On the procedure:
as §3

Series [10] relates to HepG2 cells. In words: Transwell migration assay, HepG2. It counts as cell-based, human. Conditions: HepG2, Sa 600 μM, 24 h. The method, then:
(§6) The lower section contained 700 μL of DMEM (including 10% FBS) along with the drug to be loaded. Briefly, 3 × 10^4 cells were added to the upper chamber while the lower chamber was filled with 10% FBS after incubating the cells for 24 h. The cells were cultured at 37°C for 24 h, fixed with a 4% paraformaldehyde solution, and stained with 0.5 mL of crystal violet. Subsequently, the cells in the upper chambers were removed by gently dabbing them with cotton swabs. These cells were photographed, and the invaded cells were observed using an inverted microscope (DM4 B, Leica Inc., Germany). Finally, the stained cells were counted in five randomly chosen fields under the microscope for further analysis.

Series [11] deals with SMMC-7721 cells. The series can be described thus: Colony formation assay, SMMC-7721. It counts as cell-based, human. The note with it: SMMC-7721, Sa 600 μM, 72 h then 10 d. The method, then:
as §5

The subject of series [12] is SMMC-7721 cells. The series can be described thus: Transwell migration assay, SMMC-7721. Format: cell-based, human. Conditions: SMMC-7721, Sa 600 μM, 24 h. On the procedure:
as §6

Setting [13] is: HepG2, HCQ 40 μM pretreatment 1 h then Sa 600 µM/DDP 5 µM 72 h.
Setting [14] is: SMMC-7721, Sa 600 μM, 72 h, vs control.
Where [15] appears, read: HepG2, Sa 600 μM, 72 h, vs control.
[16] abbreviates: HepG2, Sa 600 μM, 72 h, western blot.
[17] abbreviates: HepG2, Z-VAD-FMK 20 µM pretreatment 1 h then Sa 600 µM/DDP 5 µM 72 h.

Where a name gives a salt, the structure may show the parent alone. Read-outs that look alike come from different tables or passages of the source. Peptide text beside a SMILES is read from it. * marks the point of attachment. Cbz = O=C(OCc1ccccc1)*; CH2F = FC*

Regarding `N.N.[Cl][Pt][Cl]` [DDP, Cisplatin], in the series with HepG2 cells [1] (HepG2, DDP 5 μM), the “percentage of cells in the G2/M phase” value is reported as 15.40 ± 1.23%.

As a reminder, the viability is a per cent measure of how many cells are alive, often set against a control. Consider `CCN(CCO)CCCC(C)Nc1ccnc2cc(Cl)ccc12` (stereo not shown) [HCQ, Hydroxychloroquine sulfate, reference compound], for which the “a-caspase-3 protein expression increase compared to Sa/DDP treatment” value in the series on SMMC-7721 cells [2] (SMMC-7721, HCQ 40 µM pretreatment 1 h then Sa 600 µM/DDP 5 µM 72 h) is 0.73 times; in the series with HepG2 cells [5] (setting [13]), 0.34 times. Also, the “reduction of cell viability compared to Sa/DDP” value in the series with HepG2 cells [3] (setting [13]) worked out at 19.07 ± 4.70%. Further, in series [4] (HepG2, HCQ 40 μM pretreatment 1 h, no Sa/DDP, untreated 100.00 ± 19.04%), the viability at 1 h, 40 μM is 98.3 ± 18.7%.

What is called IC50 is the concentration that inhibits the measured activity by half. As for `COc1cc(/C=C/C(=O)O)cc(OC)c1O` [Sa, Sinapic acid], the IC50 amounted to 2580 µM in the series with SMMC-7721 cells [6] (24 h, read-out: IC50 24 h); 1620 µM with SMMC-7721 cells [6] (48 h, read-out: IC50 48 h); 1350 µM in the series on SMMC-7721 cells [6] (72 h, read-out: IC50 72 h); 1800 µM in the series with HepG2 cells [3] (24 h, read-out: IC50 24 h); 1380 µM in the series on HepG2 cells [3] (48 h, read-out: IC50 48 h); 794 µM in the series with HepG2 cells [3] (72 h, read-out: IC50 72 h). The IC50 was 5060 µM in the series with HL-7702 cells (24 h, read-out: IC50 24 h); 4430 µM with HL-7702 cells (48 h, read-out: IC50 48 h); 4020 µM in the series on HL-7702 cells (72 h, read-out: IC50 72 h). Also, the figures for the apoptosis rate in the series with SMMC-7721 cells [7] and in the series with HepG2 cells [8] were 10.74 ± 0.75% and 36.00 ± 2.52%, respectively. Besides, the results for the “proliferation activity (colony formation, control = 100%)” value in the series on HepG2 cells [9] and in the series on SMMC-7721 cells [11] were 71.46 ± 2.23% and 72.90 ± 1.29%, respectively. In the series with SMMC-7721 cells [2] (setting [14]), the Atg5 expression increase stood at 4.7 times. This compound showed a Beclin-1 expression increase with SMMC-7721 cells [2] (setting [14]) of 2.5 times. The compound further returned a p62 expression decrease with SMMC-7721 cells [2] (setting [14]) of 1.7 times. In [4] (HepG2, Sa 600 µM, 72 h), the viability at 72 h, 600 µM worked out at 71.3 ± 4.08%. In addition, the “inhibitory effect on normal liver cells” value in the series with HL-7702 cells (HL-7702, MTT) is given as “not pronounced”. The “percentage of cells in the G2/M phase” value in the series with HepG2 cells [1] (HepG2, Sa 600 μM) turned out to be 22.60 ± 2.26%. The “Atg5 protein expression increase” value in the series on HepG2 cells [5] (setting [15]) is given as 2.9 fold. The “Beclin-1 protein expression increase” value with HepG2 cells [5] (setting [15]) is on record as 4.8 fold. Further, in the series on HepG2 cells [5] (setting [15]), the “p62 protein expression decrease” value was determined as 2.3 fold. For the same compound, in the series with HepG2 cells [5] (setting [16]), the “cleaved PARP protein increase vs control” value is recorded as 4.3 times. Further, the “cleaved caspase-3 protein increase vs control” value in the series with HepG2 cells [5] (setting [16]) is listed as 13.6 times. For the same compound, the “decrease of the migration rate” value in the series on HepG2 cells [10] is reported as 41.52 ± 8.80%; with SMMC-7721 cells [12], 49.80 ± 5.78%.

As a reminder, the cell viability is a read-out of living cells in per cent, often relative to untreated cells. Turning to `COC(=O)C[C@H](NC(=O)[C@H](C)NC(=O)[C@@H](NC(=O)OCc1ccccc1)C(C)C)C(=O)CF` [Z-VAD-FMK, reference compound] (Cbz-Val-Ala-Asp(OMe)-CH2F), the cell viability with HepG2 cells [3] (HepG2, Z-VAD-FMK 20 μM pretreatment 1 h, no Sa/DDP, untreated 100.00 ± 19.04%) is 100.66 ± 12.14%. Besides, in the series on HepG2 cells [5] (setting [17]), the “LC3II protein expression increase compared to group without Z-VAD-FMK” value is 45.30 ± 2.05% and the “caspase protein lysis decrease compared to group without Z-VAD-FMK” value was found to be 25.22 ± 1.22%.

Source of the values: publication PMC8526204, “Effects of Sinapic Acid Combined with Cisplatin on the Apoptosis and Autophagy of the Hepatoma Cells HepG2 and SMMC-7721” (Evidence-based Complementary and Alternative Medicine : eCAM, 2021).
